Experimental data published in publication PMC9133015 (Nature Communications, 2022).
Where “and” joins values, the source holds several entries; their conditions need not be identical. Identical values can stand only once.

What was measured:
Test in all cases: Kinase inhibitor specificity profiling (Reaction Biology Corporation)
Format in all cases: biochemical
Design in all cases: % Enzyme Activity (relative to DMSO controls): concentration or dose not given beside the values
[1] = biological target: T1, panel of 370 protein kinases (Homo sapiens, UniProt Q9NRM7); settings: kinase LATS2
T1 construct: purchased Reaction Biology Corporation (assay service)

[2] = biological target: T2, panel of 370 protein kinases (Homo sapiens, UniProt P37023); settings: 2 h, kinase ALK1/ACVRL1; read-out: % Enzyme Activity (relative to DMSO controls)
T2 construct: purchased Reaction Biology Corporation (assay service)

[3] = biological target: T3, panel of 370 protein kinases (Homo sapiens, UniProt P11309); settings: 2 h, kinase PIM1; read-out: % Enzyme Activity (relative to DMSO controls)
T3 construct: purchased Reaction Biology Corporation (assay service)

[4] = biological target: T4, panel of 370 protein kinases (Homo sapiens, UniProt O14965); settings: 2 h, kinase Aurora A; read-out: % Enzyme Activity (relative to DMSO controls)
T4 construct: purchased Reaction Biology Corporation (assay service)

[5] = biological target: T5, panel of 370 protein kinases (Homo sapiens, UniProt Q9Y2H1); settings: 2 h, kinase STK38L/NDR2; read-out: % Enzyme Activity (relative to DMSO controls)
T5 construct: purchased Reaction Biology Corporation (assay service)

[6] = biological target: T6, panel of 370 protein kinases (Homo sapiens, UniProt Q16620); settings: 2 h, kinase TRKB; read-out: % Enzyme Activity (relative to DMSO controls)
T6 construct: purchased Reaction Biology Corporation (assay service)

[7] = biological target: T7, panel of 370 protein kinases (Homo sapiens, UniProt P07949); settings: 2 h, kinase RET; read-out: % Enzyme Activity (relative to DMSO controls)
T7 construct: purchased Reaction Biology Corporation (assay service)

[8] = biological target: T8, panel of 370 protein kinases (Homo sapiens, UniProt P12931); settings: 2 h, kinase c-Src; read-out: % Enzyme Activity (relative to DMSO controls)
T8 construct: purchased Reaction Biology Corporation (assay service)

[9] = biological target: T9, panel of 370 protein kinases (Homo sapiens, UniProt Q9UHD2); settings: 2 h, kinase TBK1; read-out: % Enzyme Activity (relative to DMSO controls)
T9 construct: purchased Reaction Biology Corporation (assay service)

[10] = biological target: T10, panel of 370 protein kinases (Homo sapiens, UniProt Q8IVH8); settings: kinase GLK/MAP4K3
T10 construct: purchased Reaction Biology Corporation (assay service)

[11] = biological target: T11, panel of 370 protein kinases (Homo sapiens, UniProt Q96PF2); settings: 2 h, kinase TSSK2; read-out: % Enzyme Activity (relative to DMSO controls)
T11 construct: purchased Reaction Biology Corporation (assay service)

[12] = biological target: T12, panel of 370 protein kinases (Homo sapiens, UniProt Q15759); settings: 2 h, kinase P38b/MAPK11; read-out: % Enzyme Activity (relative to DMSO controls)
T12 construct: purchased Reaction Biology Corporation (assay service)

[13] = biological target: T13, panel of 370 protein kinases (Homo sapiens, UniProt Q9H4B4); settings: 2 h, kinase PLK3; read-out: % Enzyme Activity (relative to DMSO controls)
T13 construct: purchased Reaction Biology Corporation (assay service)

[14] = biological target: T14, panel of 370 protein kinases (Homo sapiens, UniProt O43781); settings: 2 h, kinase DYRK3; read-out: % Enzyme Activity (relative to DMSO controls)
T14 construct: purchased Reaction Biology Corporation (assay service)

[15] = biological target: T15, panel of 370 protein kinases (Homo sapiens, UniProt Q13237); settings: 2 h, kinase PKG2/PRKG2; read-out: % Enzyme Activity (relative to DMSO controls)
T15 construct: purchased Reaction Biology Corporation (assay service)

[16] = biological target: T16, panel of 370 protein kinases (Homo sapiens, UniProt Q96RR4); settings: 2 h, kinase CAMKK2; read-out: % Enzyme Activity (relative to DMSO controls)
T16 construct: purchased Reaction Biology Corporation (assay service)

[17] = biological target: T17, panel of 370 protein kinases (Homo sapiens, UniProt Q16644); settings: 2 h, kinase MAPKAPK3; read-out: % Enzyme Activity (relative to DMSO controls)
T17 construct: purchased Reaction Biology Corporation (assay service)

[18] = biological target: T18, panel of 370 protein kinases (Homo sapiens, UniProt Q8WXR4); settings: 2 h, kinase MYO3b; read-out: % Enzyme Activity (relative to DMSO controls)
T18 construct: purchased Reaction Biology Corporation (assay service)

[19] = biological target: T19, panel of 370 protein kinases (Homo sapiens, UniProt P07948); settings: 2 h, kinase LYN; read-out: % Enzyme Activity (relative to DMSO controls)
T19 construct: purchased Reaction Biology Corporation (assay service)

[20] = biological target: T20, panel of 370 protein kinases (Homo sapiens, UniProt P53779); settings: kinase JNK3
T20 construct: purchased Reaction Biology Corporation (assay service)

[21] = biological target: T21, panel of 370 protein kinases (Homo sapiens, UniProt P51955); settings: 2 h, kinase NEK2; read-out: % Enzyme Activity (relative to DMSO controls)
T21 construct: purchased Reaction Biology Corporation (assay service)

[22] = biological target: T22, panel of 370 protein kinases (Homo sapiens, UniProt Q9UIK4); settings: 2 h, kinase DAPK2; read-out: % Enzyme Activity (relative to DMSO controls)
T22 construct: purchased Reaction Biology Corporation (assay service)

T10 sequence (Q8IVH8 whole entry): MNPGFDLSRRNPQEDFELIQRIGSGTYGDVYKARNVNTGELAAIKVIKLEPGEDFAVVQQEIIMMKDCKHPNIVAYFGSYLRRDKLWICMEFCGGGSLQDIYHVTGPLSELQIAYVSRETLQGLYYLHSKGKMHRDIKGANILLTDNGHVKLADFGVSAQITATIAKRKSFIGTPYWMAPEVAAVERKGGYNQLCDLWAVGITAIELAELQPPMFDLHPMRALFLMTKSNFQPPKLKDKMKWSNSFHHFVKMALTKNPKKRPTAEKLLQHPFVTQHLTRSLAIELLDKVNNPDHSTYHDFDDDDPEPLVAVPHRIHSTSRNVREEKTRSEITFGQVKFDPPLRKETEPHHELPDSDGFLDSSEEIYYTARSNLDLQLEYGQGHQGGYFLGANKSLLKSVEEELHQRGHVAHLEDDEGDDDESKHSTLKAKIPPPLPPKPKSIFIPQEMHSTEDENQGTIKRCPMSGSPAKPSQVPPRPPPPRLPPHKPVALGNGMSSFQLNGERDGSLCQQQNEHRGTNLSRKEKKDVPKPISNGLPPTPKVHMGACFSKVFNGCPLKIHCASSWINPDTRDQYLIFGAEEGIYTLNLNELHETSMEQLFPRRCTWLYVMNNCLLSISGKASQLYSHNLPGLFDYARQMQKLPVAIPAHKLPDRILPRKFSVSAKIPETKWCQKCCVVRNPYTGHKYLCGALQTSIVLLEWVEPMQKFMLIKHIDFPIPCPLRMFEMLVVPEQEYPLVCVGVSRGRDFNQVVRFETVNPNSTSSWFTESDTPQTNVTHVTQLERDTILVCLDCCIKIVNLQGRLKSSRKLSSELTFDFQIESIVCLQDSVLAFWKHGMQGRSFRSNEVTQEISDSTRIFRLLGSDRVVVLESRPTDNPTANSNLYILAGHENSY
T1 sequence (Q9NRM7 whole entry): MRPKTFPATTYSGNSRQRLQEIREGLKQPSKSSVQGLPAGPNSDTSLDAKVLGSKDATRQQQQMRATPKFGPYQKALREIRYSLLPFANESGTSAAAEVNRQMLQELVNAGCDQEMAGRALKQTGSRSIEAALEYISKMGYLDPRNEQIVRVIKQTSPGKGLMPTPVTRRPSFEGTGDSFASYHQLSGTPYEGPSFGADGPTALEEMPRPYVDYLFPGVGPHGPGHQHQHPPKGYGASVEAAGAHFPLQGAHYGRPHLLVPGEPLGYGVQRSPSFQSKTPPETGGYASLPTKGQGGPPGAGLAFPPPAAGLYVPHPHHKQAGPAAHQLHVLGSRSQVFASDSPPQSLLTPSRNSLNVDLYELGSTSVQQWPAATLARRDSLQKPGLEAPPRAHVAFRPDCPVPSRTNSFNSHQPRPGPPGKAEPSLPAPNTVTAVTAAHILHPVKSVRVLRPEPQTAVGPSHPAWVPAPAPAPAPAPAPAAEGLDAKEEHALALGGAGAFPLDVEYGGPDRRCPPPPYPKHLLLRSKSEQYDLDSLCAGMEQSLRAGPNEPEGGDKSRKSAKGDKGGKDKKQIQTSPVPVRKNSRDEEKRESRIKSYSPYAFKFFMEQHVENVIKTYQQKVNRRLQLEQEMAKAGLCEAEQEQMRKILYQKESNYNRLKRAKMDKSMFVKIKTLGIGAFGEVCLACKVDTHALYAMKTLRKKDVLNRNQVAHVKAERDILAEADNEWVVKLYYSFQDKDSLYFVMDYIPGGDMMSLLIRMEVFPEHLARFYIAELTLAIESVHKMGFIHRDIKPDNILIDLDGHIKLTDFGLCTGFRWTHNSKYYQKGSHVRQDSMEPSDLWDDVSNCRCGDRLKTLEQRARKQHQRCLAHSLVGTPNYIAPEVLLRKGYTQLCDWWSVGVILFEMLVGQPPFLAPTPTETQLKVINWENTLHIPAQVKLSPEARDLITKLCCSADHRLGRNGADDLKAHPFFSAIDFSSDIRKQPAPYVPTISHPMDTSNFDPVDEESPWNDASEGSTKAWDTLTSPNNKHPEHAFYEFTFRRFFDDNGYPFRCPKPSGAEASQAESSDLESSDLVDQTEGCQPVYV
T20 sequence (P53779 whole entry): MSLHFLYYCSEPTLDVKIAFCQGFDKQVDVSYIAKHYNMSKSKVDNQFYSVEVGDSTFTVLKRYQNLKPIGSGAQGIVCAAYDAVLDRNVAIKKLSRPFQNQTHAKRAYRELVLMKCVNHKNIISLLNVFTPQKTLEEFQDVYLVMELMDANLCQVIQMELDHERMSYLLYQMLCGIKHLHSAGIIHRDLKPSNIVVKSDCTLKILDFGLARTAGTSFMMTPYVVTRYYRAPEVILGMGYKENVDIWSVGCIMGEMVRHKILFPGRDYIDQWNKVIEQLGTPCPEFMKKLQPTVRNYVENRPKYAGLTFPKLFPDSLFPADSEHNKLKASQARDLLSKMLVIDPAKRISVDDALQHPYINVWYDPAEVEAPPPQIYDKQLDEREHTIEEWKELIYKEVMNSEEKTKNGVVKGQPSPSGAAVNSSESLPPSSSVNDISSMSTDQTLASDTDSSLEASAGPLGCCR
T6 sequence (Q16620 32-822): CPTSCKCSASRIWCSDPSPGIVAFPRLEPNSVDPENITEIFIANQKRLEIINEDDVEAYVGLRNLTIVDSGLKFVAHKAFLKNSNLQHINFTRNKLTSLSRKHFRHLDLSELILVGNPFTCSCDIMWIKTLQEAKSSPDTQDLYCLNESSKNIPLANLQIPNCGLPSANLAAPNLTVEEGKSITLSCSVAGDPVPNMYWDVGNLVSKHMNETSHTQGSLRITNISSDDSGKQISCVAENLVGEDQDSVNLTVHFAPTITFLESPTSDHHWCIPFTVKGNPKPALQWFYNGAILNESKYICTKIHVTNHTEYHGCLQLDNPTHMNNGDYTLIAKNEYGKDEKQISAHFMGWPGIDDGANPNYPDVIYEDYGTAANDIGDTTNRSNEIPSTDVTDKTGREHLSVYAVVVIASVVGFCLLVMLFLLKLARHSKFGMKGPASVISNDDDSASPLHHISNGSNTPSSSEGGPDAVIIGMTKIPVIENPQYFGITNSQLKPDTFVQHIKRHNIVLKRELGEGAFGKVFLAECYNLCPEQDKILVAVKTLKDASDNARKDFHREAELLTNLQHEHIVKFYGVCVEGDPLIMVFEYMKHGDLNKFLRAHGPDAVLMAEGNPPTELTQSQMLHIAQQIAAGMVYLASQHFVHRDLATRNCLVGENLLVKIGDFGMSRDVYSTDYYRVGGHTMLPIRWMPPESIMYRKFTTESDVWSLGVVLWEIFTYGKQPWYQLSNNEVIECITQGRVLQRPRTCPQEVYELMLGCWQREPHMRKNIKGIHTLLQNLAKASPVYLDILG
T2 sequence (P37023 22-503): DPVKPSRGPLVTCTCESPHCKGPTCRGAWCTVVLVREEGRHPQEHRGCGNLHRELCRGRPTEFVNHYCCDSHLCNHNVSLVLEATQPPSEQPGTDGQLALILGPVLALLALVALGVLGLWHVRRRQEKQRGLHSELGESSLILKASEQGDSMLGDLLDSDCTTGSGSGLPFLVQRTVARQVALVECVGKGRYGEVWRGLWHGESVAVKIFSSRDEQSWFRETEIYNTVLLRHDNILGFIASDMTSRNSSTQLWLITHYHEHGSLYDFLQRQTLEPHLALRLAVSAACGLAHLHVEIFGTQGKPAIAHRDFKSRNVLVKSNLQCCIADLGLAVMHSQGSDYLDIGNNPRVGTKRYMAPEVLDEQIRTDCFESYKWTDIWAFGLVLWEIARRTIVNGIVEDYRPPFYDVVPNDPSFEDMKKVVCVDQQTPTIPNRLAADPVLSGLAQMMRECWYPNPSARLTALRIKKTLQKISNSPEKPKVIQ
T13 sequence (Q9H4B4 whole entry): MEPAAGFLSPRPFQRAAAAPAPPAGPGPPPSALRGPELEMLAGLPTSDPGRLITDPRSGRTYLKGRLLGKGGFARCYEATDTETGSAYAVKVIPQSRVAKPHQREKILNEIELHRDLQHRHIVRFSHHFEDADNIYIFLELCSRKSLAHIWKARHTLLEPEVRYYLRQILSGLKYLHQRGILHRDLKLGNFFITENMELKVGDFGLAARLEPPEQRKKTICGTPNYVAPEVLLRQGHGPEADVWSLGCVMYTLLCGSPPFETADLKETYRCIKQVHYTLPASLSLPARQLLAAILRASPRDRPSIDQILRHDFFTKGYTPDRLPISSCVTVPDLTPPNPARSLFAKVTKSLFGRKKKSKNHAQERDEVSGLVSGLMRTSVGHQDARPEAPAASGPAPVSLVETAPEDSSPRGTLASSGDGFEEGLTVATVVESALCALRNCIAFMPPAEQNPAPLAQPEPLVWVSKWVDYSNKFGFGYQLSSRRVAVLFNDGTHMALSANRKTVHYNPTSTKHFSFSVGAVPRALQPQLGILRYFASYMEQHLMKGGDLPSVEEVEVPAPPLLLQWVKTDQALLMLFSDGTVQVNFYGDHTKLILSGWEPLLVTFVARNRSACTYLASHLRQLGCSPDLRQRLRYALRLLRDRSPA
T14 sequence (O43781 whole entry): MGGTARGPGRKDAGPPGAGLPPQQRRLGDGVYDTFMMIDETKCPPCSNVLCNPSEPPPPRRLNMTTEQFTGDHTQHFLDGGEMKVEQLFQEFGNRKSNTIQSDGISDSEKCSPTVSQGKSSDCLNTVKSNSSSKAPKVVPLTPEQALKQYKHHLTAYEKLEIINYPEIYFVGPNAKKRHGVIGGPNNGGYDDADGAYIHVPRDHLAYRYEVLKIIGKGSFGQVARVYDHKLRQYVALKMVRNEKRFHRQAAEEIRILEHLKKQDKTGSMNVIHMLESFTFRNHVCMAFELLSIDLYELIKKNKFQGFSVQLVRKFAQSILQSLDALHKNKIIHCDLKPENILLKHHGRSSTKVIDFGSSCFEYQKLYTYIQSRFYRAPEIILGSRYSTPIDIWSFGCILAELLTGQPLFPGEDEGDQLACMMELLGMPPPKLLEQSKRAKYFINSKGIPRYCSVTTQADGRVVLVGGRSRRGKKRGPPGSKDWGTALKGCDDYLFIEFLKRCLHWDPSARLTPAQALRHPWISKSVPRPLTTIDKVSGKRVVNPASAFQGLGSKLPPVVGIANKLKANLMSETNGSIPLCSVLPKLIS

## CCN1CCN(C(=O)c2ccc(Nc3ncc(F)c(-c4ccc5nc(N(C)C)sc5c4)n3)nc2)CC1 [YK-2-69]
[1]
  % Enzyme Activity (relative to DMSO controls): 96.27% and 92.88%
[2]
  remaining activity at 1 µM: 106%
[3]
  remaining activity at 1 µM: 77%
[4]
  remaining activity at 1 µM: 80.6%
[5]
  remaining activity at 1 µM: 95.4%
[6]
  remaining activity at 1 µM: 88.6%
[7]
  remaining activity at 1 µM: 88.1%
[8]
  remaining activity at 1 µM: 99.7%
[9]
  remaining activity at 1 µM: 93.1%
[10]
  % Enzyme Activity (relative to DMSO controls): 96.94% and 93.55%
[11]
  remaining activity at 1 µM: 96.7%
[12]
  remaining activity at 1 µM: 94.9%
[13]
  remaining activity at 1 µM: 99.7%
[14]
  remaining activity at 1 µM: 50.9%
[15]
  remaining activity at 1 µM: 94.6%
[16]
  remaining activity at 1 µM: 94.6%
[17]
  remaining activity at 1 µM: 116%
[18]
  remaining activity at 1 µM: 106%
[19]
  remaining activity at 1 µM: 93.9%
[20]
  % Enzyme Activity (relative to DMSO controls): 84.96% and 83.74%
[21]
  remaining activity at 1 µM: 94.2%
[22]
  remaining activity at 1 µM: 89.2%
